Assay results taken from PMC9037833 (RSC Advances, 2021).

Target: T1, human A3AR (Homo sapiens, UniProt P0DMS8)
T1 sequence (P0DMS8 1-318): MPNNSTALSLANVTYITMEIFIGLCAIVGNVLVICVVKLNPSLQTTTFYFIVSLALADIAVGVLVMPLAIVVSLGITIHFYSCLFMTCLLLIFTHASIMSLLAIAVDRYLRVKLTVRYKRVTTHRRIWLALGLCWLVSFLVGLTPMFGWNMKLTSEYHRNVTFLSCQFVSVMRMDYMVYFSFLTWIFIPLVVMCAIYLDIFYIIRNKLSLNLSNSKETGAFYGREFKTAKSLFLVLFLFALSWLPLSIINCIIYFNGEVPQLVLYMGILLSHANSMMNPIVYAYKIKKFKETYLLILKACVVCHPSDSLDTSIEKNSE
Format: binding

| Ki [nM] | fold higher A3AR affinity than 8a (ratio of Ki values vs 8a at hA3AR) [fold] | Compound |
| --- | --- | --- |
| 970 ± 60 | – | CCSc1nc(N)c2ncn([C@H]3[C@H](O)[C@H](O)[C@]4(CO)C[C@H]34)c2n1 [Compound 8b, (1R,2R,3S,4R,5S)-4-(6-Amino-2-(ethylthio)-9H-purin-9-yl)-1-(hydroxymethyl)bicyclo[3.1.0]hexane-2,3-diol] |
| 548 ± 44 | – | CCCCCCSc1nc(N)c2ncn([C@H]3[C@H](O)[C@H](O)[C@]4(CO)C[C@H]34)c2n1 [Compound 8c, (1R,2R,3S,4R,5S)-4-(6-Amino-2-(hexylthio)-9H-purin-9-yl)-1-(hydroxymethyl)bicyclo[3.1.0]hexane-2,3-diol] |
| 1080 ± 90 | – | Nc1nc(SC2CCCCC2)nc2c1ncn2[C@H]1[C@H](O)[C@H](O)[C@]2(CO)C[C@H]12 [Compound 8d, (1R,2R,3S,4R,5S)-4-(6-Amino-2-(cyclohexylthio)-9H-purin-9-yl)-1-(hydroxymethyl)bicyclo[3.1.0]hexane-2,3-diol] |
| 49.8 ± 5.5 | 30 | Nc1nc(SCc2ccccc2)nc2c1ncn2[C@H]1[C@H](O)[C@H](O)[C@]2(CO)C[C@H]12 [Compound 8e, (1R,2R,3S,4R,5S)-4-(6-Amino-2-(benzylthio)-9H-purin-9-yl)-1-(hydroxymethyl)bicyclo[3.1.0]hexane-2,3-diol] |
| 291 ± 89 | – | Nc1nc(SCCc2ccccc2)nc2c1ncn2[C@H]1[C@H](O)[C@H](O)[C@]2(CO)C[C@H]12 [Compound 8f, (1R,2R,3S,4R,5S)-4-(6-Amino-2-(phenethylthio)-9H-purin-9-yl)-1-(hydroxymethyl)bicyclo[3.1.0]hexane-2,3-diol] |
| 1140 ± 84 | – | COc1nc(N)c2ncn([C@H]3[C@H](O)[C@H](O)[C@]4(CO)C[C@H]34)c2n1 [Compound 8g, (1R,2R,3S,4R,5S)-4-(6-Amino-2-methoxy-9H-purin-9-yl)-1-(hydroxymethyl)bicyclo[3.1.0]hexane-2,3-diol] |
